This is an account of results in patent EP2935231B1, “C-XYLOSIDE COMPOUNDS, COMPOSITIONS AND USE THEREOF TO DEPIGMENT THE SKIN” (L'OREAL, priority 2012, dated 2014).

pIC50: −log10 of the molar value. Where two headings read alike, the source gives them in different places.

The subject of one data set is synthèse de la mélanine. The data set can be described thus: Inhibition of melanin synthesis in keratinocyte/melanocyte coculture (ratio of thiouracil to leucine incorporation). To be noted: concentration at which 50 % of melanin synthesis is inhibited; thiouracil/leucine incorporation relative to 100 % of control. The data set is classed as cell-based.
Data set [1] deals with coculture de kératinocytes et de mélanocytes.
From the text: (§1) Ce test est réalisé sur coculture de kératinocytes et de mélanocytes.
(§2) Pour le composé testé, il a été déterminé : • la cytotoxicité, en estimant l'incorporation de la leucine, • l'activité inhibitrice sur la synthèse de la mélanine, en estimant le rapport de l'incorporation de thiouracile à l'incorporation de leucine, rapporté à 100 % du témoin (le témoin correspond au test réalisé sans composé à testé). Les valeurs des IC50 (concentration pour laquelle 50 % de la synthèse de la mélanine est inhibée) ont été déterminées.
The test system is the same in data set [2]. As to the kind of experiment: Cytotoxicity on keratinocyte/melanocyte coculture (leucine incorporation). To be noted: coculture of keratinocytes and melanocytes.
From the text: as §1, §2
The subject of data set [3] is modèle de peau reconstruite complet comprenant un derme vivant. As to the kind of experiment: Pigmentation in complete reconstructed skin model with living dermis, pigmentation induced by forskolin. In kind it is cell-based. The text has this:
L'activité du composé 1 a été évaluée sur le modèle de peau reconstruite complet décrit dans le brevet FR2928654 selon le procédé décrit dans le brevet FR2930644.
Le composé 1 a été ajouté au milieu de culture pendant une période de 16 jours à partir du 2eme jour de la phase d'émersion. La pigmentation a été induite par la Forskoline ajoutée pendant une période de 14 jours à partir du 4eme jour d'émersion (condition contrôle positif pigmenté).
Le composé 1 a montré une activité dépigmentante sur les paramètres suivants : • Luminance (clarté de la peau) plus la valeur de luminance est élevée plus l'échantillon de peau est clair : • augmentation significative de 6 points de la luminance pour le composé1 (Valeur de L contrôle positif = 63, valeur de L traitement par molécule 1 à 1 mM = 69) • Quantification de la mélanine par analyse d'images sur des coupes colorées au Fontana Masson (coloration argentique des grains de mélanine) : réduction de 60% de la quantité de mélanine par le composé 1 (contrôle positif = valeur arbitraire de 100%, composé 1 à 1 mM = 39,48%).

As usually defined, the pIC50 is −log10 of the IC50, conventionally taken in molar units.

From the text for synthèse de la mélanine: as §1, §2

Take `Oc1ccc(CCC(O)CC2OC[C@@H](O)[C@H](O)[C@H]2O)c(O)c1` (stereo partly drawn) [Composé 11, (3R,4S,5R)-2-[2-hydroxy-4-(2,4-di-hydroxy-phenyl)butyl]tetrahydro-2H-pyran-3,4,5-triol]: the pIC50 with synthèse de la mélanine is 3.84. Moreover, in data set [1], the Cytotoxicité sur co-culture entry is “Non cytotoxique”.

On to `O=c1cc(CO)occ1O` [Acide kojique], for which the pIC50 in the data set on synthèse de la mélanine was < 3.30. Moreover, the Cytotoxicité sur co-culture in data set [2] is reported as 100 µM.

Turning to `COc1cc(CCC(O)CC2OC[C@@H](O)[C@H](O)[C@H]2O)ccc1O` (stereo partly drawn) [Composé 1, (3R,4S,5R)-2-[2-hydroxy-4-(4-hydroxy-3-methoxyphenyl)butyl]tetrahydro-2H-pyran-3,4,5-triol], the “valeur de L (luminance)” value in data set [3] (1 mM, 16 days in culture medium, forskolin-induced pigmentation, higher = lighter skin) worked out at 69. Moreover, the “augmentation de la luminance” value in data set [3] (1 mM, 16 days in culture medium, versus forskolin positive control (L = 63)) turned out to be 6 points. In addition, the “quantité de mélanine (contrôle positif = valeur arbitraire de 100%)” value in data set [3] (1 mM, image analysis of Fontana Masson stained sections) is given as 39,48%. Besides, the “réduction de la quantité de mélanine” value in data set [3] (1 mM, image analysis of Fontana Masson stained sections, versus positive control) is reported as 60%. Besides, the effet toxique result in data set [3] (histology (morphology of reconstructed skin) and number of melanocytes (TRP1 labelling, DOPA reaction on epidermal sheet)) is reported as “absence d'effet toxique”.

As for `OC[C@H]1O[C@@H](Oc2ccc(O)cc2)[C@H](O)[C@@H](O)[C@@H]1O` [Arbutine], in the data set with synthèse de la mélanine, the pIC50 was < 3.30. The Cytotoxicité sur co-culture result in data set [2] was “Non cytotoxique”.
